Each structure is given as a SMILES string. The source made the active and inactive calls. The calls are words filed in the database; no cut-off is given here.

The subject of experiment [1] is T47D. The experiment in a line: Induction of autophagy in human T47D cells assessed as downregulation of MYC protein expression incubated for 24 hrs by western blot analysis. Format: functional, cell-based. As to conditions: dose 1-5 µM. In general terms: Immunoblotting shows a protein as a band on a membrane.
Experiment [2] deals with T47D. The experiment in a line: Induction of autophagy in human T47D cells assessed as increase in LC3 protein expression by western blot analysis. Format: functional, cell-based.
Experiment [3] deals with MCF7. The experiment in a line: Antitumor activity against human MCF7 cells xenografted in BALB/c nude mouse assessed as reduction in tumor volume at 4 mg/kg, ip administered every other day by caliper analysis. Format: functional, organism-based. Background: In xenograft studies the graft and the host belong to different species.
The subject of experiment [4] is T47D. Put plainly: Induction of autophagy in human T47D cells assessed as increase in autophagosome number by measuring LC3 puncta formation by immunofluorescence assay. Type of experiment: functional, cell-based.
In experiment [5] the test system is T47D. Put plainly: Induction of autophagy in human T47D cells assessed as increase in lysosome number by LysoTracker dye based confocal microscopy. Format: functional, cell-based.
Experiment [6] is described as follows: Anticancer activity against ER-alpha positive human LCC2 cells assessed as reduction in cell viability measured after 48 hrs by CCK8 assay. As to conditions: lcc2. Format: functional, cell-based. Background: Tetrazolium assays rely on reduction of a dye to a coloured formazan, in cell work by metabolically active cells.

With `CO[C@H]1C[C@@H]2CC[C@@H](C)[C@@](O)(O2)C(=O)C(=O)N2CCCC[C@H]2C(=O)O[C@H]([C@H](C)C[C@@H]2CC[C@@H](O)[C@H](OC)C2)CC(=O)[C@H](C)/C=C(\C)[C@@H](O)[C@@H](OC)C(=O)[C@H](C)C[C@H](C)/C=C/C=C/C=C/1C`, the Activity entry in experiment [1] is “Dose-Dependent Effect”.
Consider `C[C@]12CC[C@@H]3c4ccc(O)cc4C[C@@H](CCCCCCCCC[S+]([O-])CCCC(F)(F)C(F)(F)F)[C@H]3[C@@H]1CC[C@@H]2O` (some centres undefined), for which the outcome in experiment [2], in experiment [3], in experiment [4] and in experiment [5] was Active.
For `CC/C(=C(\c1ccccc1)c1ccc(OCCN(C)C)cc1)c1ccccc1` [TAMOXIFEN], the outcome in experiment [2], in experiment [4] and in experiment [5] was Active. Moreover, the IC50 entry in experiment [6] is on record as “Not Active”.

(Values after ChEMBL document CHEMBL5252612, “A novel selective estrogen receptor degrader induces cell cycle arrest in breast cancer via ERα degradation and the autophagy-lysosome pathway” (Bioorg Med Chem, 2023).)
